# Measured values from the supplement of paper PMC10307832.
# Assays:
# Assay in all cases: relative viability (nuclei count vs DMSO), 5 days (fraction); higher = more cells survive
# [1] = system: NCI-H322M
# Method in brief: (§1)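 Nuclei were stained with Hoechst during a one-step fixation (final 0.05% Triton X-100, 1% formaldehyde, 1 ug/ml Hoechst) carried out 5 days after dosing, then counted on 4× images. The cells, lung cancer lines in 1536-well plates, had been dosed by pin tool the day after seeding with one drug alone or a fixed anchor-drug dose plus five library-drug doses (not always all listed) in √10 steps. Relative viability is the nuclei count in treated wells divided by that in vehicle wells, and each value is the median of duplicate plates.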
# [2] = system: NCI-H441
# Method in brief: as §1
# [3] = system: NCI-H460
# Method in brief: as §1
# [4] = system: NCI-H520
# Method in brief: as §1
# [5] = system: NCI-H650
# Method in brief: as §1
# [6] = system: NCI-H661
# Method in brief: as §1
# [7] = system: NCI-H727
# Method in brief: as §1
# [8] = system: PC-14
# Method in brief: as §1
# [9] = system: RERF-LC-KJ
# Method in brief: as §1
# [10] = system: SK-MES-1
# Method in brief: as §1
# [11] = system: SW 900
# Method in brief: as §1
smiles,measurement,setting,value
NC(=O)Nc1cc(-c2cccc(F)c2)sc1C(=O)N[C@H]1CCCNC1 [AZD7762] + CC(=O)c1c(C)c2cnc(Nc3ccc(N4CCNCC4)cn3)nc2n(C2CCCC2)c1=O [Palbociclib] (partner 0.5 µM),relative viability,[1]; first compound 0.1 µM,0.465
same,relative viability,[1]; first compound 0.3162 µM,0.523
same,relative viability,[1]; first compound 1 µM,0.441
same,relative viability,[2]; first compound 0.01 µM,0.242
same,relative viability,[2]; first compound 0.03162 µM,0.26
same,relative viability,[2]; first compound 0.1 µM,0.232
same,relative viability,[2]; first compound 0.3162 µM,0.251
same,relative viability,[2]; first compound 1 µM,0.256
same,relative viability,[3]; first compound 0.01 µM,0.254
same,relative viability,[3]; first compound 0.03162 µM,0.117
same,relative viability,[3]; first compound 0.1 µM,0.0606
same,relative viability,[3]; first compound 0.3162 µM,0.0344
same,relative viability,[3]; first compound 1 µM,0.0224
same,relative viability,[4]; first compound 0.01 µM,0.244
same,relative viability,[4]; first compound 0.03162 µM,0.255
same,relative viability,[4]; first compound 0.1 µM,0.189
same,relative viability,[4]; first compound 0.3162 µM,0.232
same,relative viability,[4]; first compound 1 µM,0.189
same,relative viability,[5]; first compound 0.01 µM,0.377
same,relative viability,[5]; first compound 0.03162 µM,0.374
same,relative viability,[5]; first compound 0.1 µM,0.403
same,relative viability,[5]; first compound 0.3162 µM,0.38
same,relative viability,[5]; first compound 1 µM,0.382
same,relative viability,[6]; first compound 0.01 µM,0.447
same,relative viability,[6]; first compound 0.03162 µM,0.456
same,relative viability,[6]; first compound 0.1 µM,0.497
same,relative viability,[6]; first compound 0.3162 µM,0.461
same,relative viability,[6]; first compound 1 µM,0.344
same,relative viability,[7]; first compound 0.01 µM,0.693
same,relative viability,[7]; first compound 0.03162 µM,0.669
same,relative viability,[7]; first compound 0.1 µM,0.669
same,relative viability,[7]; first compound 0.3162 µM,0.642
same,relative viability,[7]; first compound 1 µM,0.559
same,relative viability,[8]; first compound 0.01 µM,0.601
same,relative viability,[8]; first compound 0.03162 µM,0.469
same,relative viability,[8]; first compound 0.1 µM,0.326
same,relative viability,[8]; first compound 0.3162 µM,0.203
same,relative viability,[8]; first compound 1 µM,0.0753
same,relative viability,[9]; first compound 0.01 µM,1.09
same,relative viability,[9]; first compound 0.03162 µM,1.07
same,relative viability,[9]; first compound 0.1 µM,1.06
same,relative viability,[9]; first compound 0.3162 µM,1.01
same,relative viability,[9]; first compound 1 µM,0.965
same,relative viability,[10]; first compound 0.01 µM,0.339
same,relative viability,[10]; first compound 0.03162 µM,0.337
same,relative viability,[10]; first compound 0.1 µM,0.328
same,relative viability,[10]; first compound 0.3162 µM,0.279
same,relative viability,[10]; first compound 1 µM,0.2
same,relative viability,[11]; first compound 0.01 µM,0.597
same,relative viability,[11]; first compound 0.03162 µM,0.688
same,relative viability,[11]; first compound 0.1 µM,0.583
same,relative viability,[11]; first compound 0.3162 µM,0.444
same,relative viability,[11]; first compound 1 µM,0.504
